# Patent publication US8337828B2, “Use of thymosin alpha 1, alone or in combination with PTX3 or ganciclovir, for the treatment of cytomegalovirus infection” (priority 2006, dated 2012)
# Assays:
# spleen cells = experiment: Cytokine levels in culture supernatants of spleen cells from MCMV-infected mice (ELISA); assay type: in vivo; settings: BALB/c mice with MCMV infection, GCV compared with Thymosin alpha 1
# From the text: Arrow indicates an inducible band. Lane 1, uninfected cells; lane 2, MCMV-infected; lane 3, Thymosin alpha 1 treated; lane 4, MCMV+Thymosin alpha 1 treated. (FIG. 3b) Cytokine production (pg/ml) by DC subsets treated as above. Bars indicate the standard errors. *P<0.05, cytokine production in MCMV-infected DC vs uninfected DC. **P<0.05, Thymosin alpha 1-treated vs untreated DC. (FIG. 3c) Cytokine production in mice during MCMV infection. Cytokine levels (pg/ml) in culture supernatants of spleen cells from mice with MCMV infection and treated for a week with Thymosin alpha 1 or GCV. *P<0.05, treated vs untreated mice. ND, not done.
# Viral load (FIG. 4a) and cytokine production (FIG. 4b) in C57BL6, TLR4−/−, TLR9−/− and MyD88−/− mice infected with 5×10^5 PFU of MCMV and treated with 200 μg/kg Tα1 for a week. Virus titers, expressed as log 10, were quantified on MEF cells by standard plaque assay on infected tissues removed a week after infection and treatment. Cytokine (pg/ml) levels in culture supernatants of spleen cells were determined by ELISA assay. Bars indicate the standard errors. *P<0.05, Tα1-treated vs untreated mice. Results are representative of 3 independent experiments.
# (§1) BALB/c or C57BL6 mice were infected with 10^5 or 5×10^5 PFU of MCMV, respectively. Virus titers, expressed as log 10, were quantified on MEF cells by standard plaque assay on lung tissues removed 7 days after the infection. Tα1 (200 μg/kg/daily for a week) and/or GCV (40 mg/kg, three times a week) were administered beginning the day of the infection. Cytokine (pg/ml) levels in culture supernatants of spleen cells (7 days) were determined by ELISA assay. Bars indicate the standard errors. *P<0.05, treated vs untreated mice. Results are representative of 3 independent experiments.
# Quantification of cytokines by ELISA and ELISPOT assays. The levels of cytokines in the culture supernatants of mitogen-stimulated spleen cells (48 h stimulation with 10 μg/ml ConA) or MCMV-pulsed DC (24 h) were determined by ELISA (R&D Systems and PBL, Biomedical Lab, Milan, Italy). The detection limits (pg/ml) of the assays were <16 for IL-12 p70, <10 for IFN-., <3 for IL-10 and <10 for IFN-a. IFN-.-producing NK cells were enumerated by ELISPOT assay on purified NK (Virus Res. 2003; 98:17-467 25). Results are expressed as the mean number of cytokine-producing cells (±SE) per 10^5 cells, calculated using replicates of serial 2-fold dilutions of cells.
# MCMV = MCMV infection in mice, virus titers by standard plaque assay on tissues; assay type: in vivo, BALB/c and C57BL6 mice
# Procedure: BALB/c (FIG. 1a) and C57BL6 (FIG. 1b) mice were infected with 1×10^5 or 5×10^5 PFU of MCMV, respectively. Virus titers were quantified on MEF cells by standard plaque assay on tissues removed at different times (FIG. 1a) or a week after infection (FIG. 1b) and expressed as log 10(mean±standard errors, SE). Thymosin alpha 1 (200 μg/kg given for 7 or 14 days) and GCV (40 mg/kg given three times a week) were administered beginning the day of the infection. Controls received the scrambled peptide. Results are representative of 4 independent experiments. Bars indicate the standard errors. *P<0.05, viral load between treated and untreated mice.
# as §1
# Inbred C57BL6 and BALB/c mice were injected intraperitoneally (i.p.) with 1×10^5 (BALB/c) or 5×10^5 (C57BL6) plaque forming units (PFU) of MCMV. Virus titers were quantified on MEF cells by standard plaque assay on tissues removed a day after treatment. Treatments were as follow: Tα1 ([…]) and PTX3 (1 mg/k/ip) (SIGMA-Tau, Pomezia, Rome, Italy) were given daily for 7 consecutive days beginning the day of the infection. Controls received the scrambled peptide. All organs from uninfected animals were negative viruses. Virus titers are expressed as log 10 (mean±standard errors, SE).
# Mice. Wild-type (WT) inbred C57BL6 and BALB/c mice, 8 to 12 weeks old, were purchased from Charles River Breeding Laboratories (Calco, Italy). Pairs of homozygous TLR9-(TLR9−/−), TLR4-(TLR4−/−), and MyD88-(MyD88−/−)-deficient mice (on the C57BL6 background), were bred under specific pathogen-free conditions at the breeding facilities of the University of Perugia, Perugia, Italy. Experiments were performed following protocols approved by the institutional animal committee and in accordance with European Economic Community Council Directive as well as institutional animal care and use guidelines.
# Virus, infection and treatments. Stocks of Smith strain MCMV salivary gland extracts were prepared from BALB/c mice and titered in a standard plaque assay on BALB/c murine embryonic fibroblast (MEF) cells (J. Gen. Virol. 2002; 83:2983-2993). Mice were injected intraperitoneally (i.p.) with 1×10^5 (C57BL6) plaque forming units (PFU) of MCMV. Virus titers were quantified on MEF cells by standard plaque assay on tissues removed at different times. Treatments were as follows: Thymosin alpha 1 and the scrambled polypeptide (both from SciClone Pharmaceuticals, San Mateo, CA) were supplied as purified (the endotoxin levels were <0.03 pg/ml, by a standard limulus lysate assay) sterile, lyophilized, acetylated polypeptide. The sequences were as follows: Ac-Ser-Asp-Ala-Ala-Val-Asp-Thr-Ser-Ser-Glu -Ile-Thr-Thr-Lys-Asp-Leu-Lys-Glu-Lys-Lys-Glu-Val-Glu-Glu-Ala-Glu-Asn-O (Tα1) SEQ ID NO:1 and Ac-Ala-Lys-Ser-Asp-Val-Lys-Ala-Glu-Thr-Ser-Ser-Glu-Ile-Asp-Thr-Thr-Glu-Leu -Asp-Glu-Lys-Val-Glu-Val-Lys-Ala-Asn-Glu-OH (scrambled peptide) SEQ ID NO:2. The lyophilized powders were reconstituted in sterile water and 200 μg/kg/i.p. were given daily for 7 or 14 consecutive days beginning the day of the infection. Gancyclovir (GCV) (Cymevene; from Recordati, Milan, Italy) was administered at 40 mg/kg/i.p. three times a week, every other day, beginning 6 h after infection. Controls received the scrambled peptide or the diluent alone.
# Plaque assay. Plaque assay was determined on cells grown to subconfluence and incubated with serially diluted virus samples for 2 h at 37° C. (10). […]
compound,measurement,setting,value
"Nc1nc(O)c2ncn(COC(CO)CO)c2n1 [GCV, Ganciclovir]","IFN-a, IFN-. and IL-12p70 production",spleen cells,comparable to those obtained with GCV
Ac-Ala-Lys-Ser-Asp-Val-Lys-Ala-Glu-Thr-Ser-Ser-Glu-Ile-Asp-Thr-Thr-Glu-Leu -Asp-Glu-Lys-Val-Glu-Val-Lys-Ala-Asn-Glu-OH (Ac-AKSDVKAETSSEIDTTELDEKVEVKANE-OH) [scrambled peptide],viral load in different visceral organs,"MCMV; 200 μg/kg for 7 days, both susceptible (BALB/c) and resistant (C57BL6) mice",not
PTX3: long pentraxin protein with N-terminal domain and C-terminal domain similar to short pentraxins; from SIGMA-Tau,viral titers in the lung,"MCMV; PTX3 alone, 1 mg/k/ip daily for 7 days, BALB/c or C57BL6 mice",decreased the viral titers
